Data published in patent US8722707B1, “Compositions and methods for inhibition of smooth muscle cell proliferation and neointimal hyperplasia” (The Ohio State University, priority 2009, dated 2014).

Tests used:
[1] = system: ATF-2; assay: ATF-2 activation in SMCs (Western blot); type: cell-based, human; design: dose or concentration left out as unconfirmed; conditions: HO-3867 (FIG. 3A legend)
Description: (§1) Western blotting was performed as reported previously (Selvendiran K, Tong L, Vishwanath S, Bratasz A, Trigg N J, Kutala V K, Hideg K, and Kuppusamy P, EF 24 induces G 2/M arrest and apoptosis in cisplatin-resistant human ovarian cancer cells by increasing PTEN expression. J Biol Chem 282::28609-28618).
(§2) We next wanted to check the involvement of reactive oxygen species-mediated p38 mitogen-activated protein kinase pathways in the activation of ATF-2.

[2] = system: FAK; assay: FAK expression in SMCs (Western blot); type: cell-based, human; conditions: 10 μM, 24-h exposure
Description: as §1

[3] = system: MMP-2; assay: MMP-2 activity by gelatin zymography in rat carotid artery; type: in vivo, Sprague-Dawley rats; conditions: treatment group compared with injured/untreated group
Description: (§3) MMP-2 and MMP-9 was determined by gelatin zymography as reported previously (Cho and Reidy, 2002). Matrix metalloproteinase-9 is necessary for the regulation of smooth muscle cell replication and migration after arterial injury. Circ Res 91:845-851).
(§4) All experiments involving animals were performed in accordance with the relevant guidelines and regulations approved by the Internal Animal Care and Use Committee of The Ohio State University. Sprague-Dawley rats weighing 300 to 350 g were anesthetized by an intraperitoneal injection of ketamine (6 0 mg/kg) and xylazine (5 mg/kg). Under a stereomicroscope, the right common, external, and internal carotid arteries were exposed by a longitudinal midline cervical incision. Blood flow was temporarily interrupted by ligation of the common and internal carotid arteries using vessel clips. The external carotid artery was ligated permanently using 6-0 silk suture. […]
(§5) Immediately after completion of the carotid injury procedure, subcutaneous administration of HO-3867 (in 10% DMSO+40% polyethylene glycol+50% PBS) commenced at a dose of 5 or 10 mg/kg/day, and continued for 2 weeks (n=5 for each group). […] The intimal and medial areas were measured using MetaMorph software (Molecular Devices, Sunnyvale, Calif.), and intimal/medial ratios were calculated. […]

[4] = system: MMP-9; assay: MMP-9 activity by gelatin zymography in rat carotid artery; type: in vivo, Sprague-Dawley rats; conditions: treatment group compared with injured/untreated group
Description: as §3, §4, §5

[5] = system: p38 mitogen-activated protein kinase; assay: Activation of p38 mitogen-activated protein kinase in cultured SMCs; type: cell-based, human; conditions: data not shown
From the text: as §2

[6] = system: human aortic endothelial cells; assay: Inhibitory effect on human aortic endothelial cells; type: cell-based; conditions: 10 μM
[7] = system: p53, p21, ERK1/2, cyclin D1, Akt; assay: Cell cycle regulatory proteins in SMCs (Western blot); type: cell-based, human; conditions: SMCs treated with HO-3867
Description: as §1

[8] = system: MMP-9; assay: MMP-9 expression in SMCs (Western blot, immunofluorescence); type: cell-based, human; conditions: 10 μM for 12 or 24 h
Description: as §1
(§6) SMCs, grown on Lab-Tek Chamber slides (Nalge Nunc International, Rochester, N.Y.), were fixed with 4% paraformaldehyde for 10 min at room temperature and then washed in PBS containing 0.05% Tween 20. Nonspecific reactions were blocked with Protein B lock Serum-Free (DAKO, Kyoto, Japan) and then incubated with an anti-PTEN, MMP-2, or MMP-9 antibody at 4 C overnight. After washing in PBS containing 0.05% Tween 20, the specimens were treated with Alexa Fluor goat anti-mouse IgG (H+L) antibody (Invitrogen, Carlsbad, Calif.) for 45 min at room temperature and then counterstained by propidium iodide after digestion of RNA by RNase (Invitrogen). The immunostaining of PTEN, MMP-2, and MMP-9 proteins was visualized using a fluorescence microscope (Nikon, Tokyo, Japan).
(§7) We investigated whether the HO-3867-induced PTEN expression could suppresses MMP expression in SMCs.

[9] = system: rat carotid artery; assay: Neointimal formation after balloon injury in rat carotid artery (morphometric analysis); type: in vivo, Sprague-Dawley rats; conditions: subcutaneous
Description: (§8) All experiments involving animals were performed in accordance with the relevant guidelines and regulations approved by the Internal Animal Care and Use Committee of The Ohio State University. Sprague-Dawley rats weighing 300 to 350 g were anesthetized by an intraperitoneal injection of ketamine (6 0 mg/kg) and xylazine (5 mg/kg). Under a stereomicroscope, the right common, external, and internal carotid arteries were exposed by a longitudinal midline cervical incision. Blood flow was temporarily interrupted by ligation of the common and internal carotid arteries using vessel clips. The external carotid artery was ligated permanently using 6-0 silk suture. A 2F Fogarty arterial embolectomy catheter (Edwards Lifesciences, Irvine, Calif.) was introduced through an arteriotomy in the external carotid artery just below the ligature and advanced to the common carotid artery. To produce the injury, the balloon was inflated with saline and passed six times with rotation from just under the proximal edge of the omohyoid muscle to the carotid bifurcation. The balloon was then deflated, and the catheter was withdrawn. Blood flow was restored by removing the clips on the common and internal carotid arteries. After visual inspection to ascertain adequate pulsation of the common carotid artery, the surgical incision was closed, and the rats were allowed to recover from anesthesia in a humidified and warmed chamber for 2 to 4 h.
as §5, with “group). The control group received the vehicle only. After treatment for 14 days, the animals were sacrificed with an overdose of pentobarbital (200 mg/kg), and the carotid arteries were collected for morphometric analysis and isolation of proteins for analysis by Western blotting.” for “group).”

[10] = system: PTEN cDNA-transfected SMCs; assay: PTEN cDNA-transfected SMCs treated with HO-3867 (survival, cell cycle, cleaved caspase-3); type: cell-based, human
Description: The PTEN siRNA and cDNA transfection experiments were performed as reported (Selvendiran et al., 2007, supra).
We investigated whether the PTEN overexpression was responsible for the inhibition of cell survival and proliferation in SMCs. We used wild-type PTEN cDNA transfection into SMCs for these experiments. Twenty-four hours after transfection, the cells were treated with 10 μM HO-3867 for 12 h.

[11] = system: reactive oxygen species; assay: Production of reactive oxygen species in cultured SMCs; type: cell-based, human; conditions: data not shown
From the text: as §2

[12] = system: human aortic SMCs; assay: Serum-stimulated proliferation of human aortic SMCs (viable cell count); type: cell-based
Description: Human aortic SMCs were obtained at passage 3 (AoSMC; Lonza Walkersville, Inc., Walkersville, Md.). The cells were maintained in culture in a humidified incubator at 37 C and 5% CO2 in smooth muscle cell growth medium (SmG M-2). Cells were trypsinized and passaged at 95% confluence. Studies were performed using cells at passages 4 to 6 at 6 0 to 90% confluence. Cells were counted using an automated cell counter (NucleoCounter; New Brunswick Scientific, Edison, N.J.).
We first studied the effect of HO-3867 on serum-stimulated proliferation of human aortic SMCs, in vitro (FIG. 1A).
(§9) The cells were then treated with 0, 0.5, 1, 5, and 10 μM HO-3867 for 24 h, after which the cells were trypsinized and counted for viability. […] We observed inhibition of SMC proliferation by both phase-contrast microscopy (FIG. 1B) and by nuclear staining with DAPI (FIG. 1C). Next, we determined whether the growth inhibition of SMC by HO-3867 was due to cell cycle arrest or apoptosis. SMCs were treated with 10 μM HO-3867 for 12 or 24 h. The cells were then fixed, and cell cycle populations were determined by flow cytometry.

[13] = system: PTEN; assay: PTEN expression in rat carotid artery tissue after balloon injury; type: in vivo, Sprague-Dawley rats; conditions: subcutaneous, 14 days
Description: as §1, §4, §5

[14] = system: MMP-2, MMP-9, NF-κB p65, pERK1/2, pAkt, cyclin D1, p53, cleaved caspase-3; assay: Western blot of regulatory proteins in rat carotid artery tissue after balloon injury; type: in vivo, Sprague-Dawley rats
Description: as §1
as §8, with “After visual inspection to ascertain adequate pulsation of the common carotid artery, the surgical incision was closed, and the rats were allowed to recover from anesthesia in a humidified and warmed chamber for 2 to 4 h.” left out
Immediately after completion of the carotid injury procedure, subcutaneous administration of HO-3867 (in 10% DMSO+40% polyethylene glycol+50% PBS) commenced at a dose of 5 or 10 mg/kg/day, and continued for 2 weeks (n=5 for each group). […] The intimal and medial areas were measured using MetaMorph software (Molecular Devices, Sunnyvale, Calif.), and intimal/medial ratios were calculated.

[15] = system: human aortic SMCs; assay: Cell cycle analysis by flow cytometry in SMCs; type: cell-based; conditions: 10 μM for 12 or 24 h
Description: Flow cytometry was performed (Selvendiran K, Bratasz A, Tong L, Ignarro L J, and Kuppusamy P, NCX-4016, a nitro-derivative of aspirin, inhibits EGFR and STAT3 signaling and modulates Bcl-2 proteins in cisplatin-resistant human ovarian cancer cells and xenografts. Cell Cycle 7 :8188).
as §9

[16] = system: NF-κB p65; assay: NF-κB p65 expression in SMCs (Western blot); type: cell-based, human; conditions: 10 μM, 24-h exposure
Description: as §1
In addition, HO-3867 inhibited NF-κB p65, one of the main regulator mechanisms in the inflammatory activation of MMP-9 in SMCs (FIG. 5A).

[17] = system: PTEN; assay: PTEN expression and activation in SMCs (Western blot, immunofluorescence, RT-PCR); type: cell-based, human; design: PTEN mRNA expression: dose or concentration left out as unconfirmed
Description: as §1, §6
Total RNA was isolated from SMCs using the RNeasy system according to the instructions of the manufacturer. RNA quantification was done using spectrophotometry. Reverse transcription (RT)-PCR analysis for the mRNA expressions in PTEN and the internal control GAPDH was carried out using a GeneAmp PCR System Veriti thermo cycler (Applied Biosystems, Foster City, Calif.) under the following conditions: initial denaturation at 94 C for 2 min, 35 cycles of amplification (denaturation at 94 C for 30 s, annealing at 50 C for 30 s, and extension at 72 C for 30 s), and extension at 72 C for 5 min. The sequences (5′-3′) for the primer pairs of PTEN and GAPDH, respectively, were as follows:
This was further confirmed by immunofluorescence microscopy (FIG. 2B).
To confirm whether the increase in the expression of PTEN was due to its transcriptional induction by HO-3867, we performed RT-PCR analysis for PTEN mRNA.

[18] = system: MMP-2; assay: MMP-2 expression in SMCs (Western blot, immunofluorescence); type: cell-based, human; conditions: 10 μM for 12 or 24 h
Description: as §1, §6, §7

[19] = Western blot of carotid tissue, 14 days treatment
[20] = 10 μM, as early as 1 h of treatment, immunoblot

## CC1(C)C=C(CN2C/C(=C\c3ccc(F)cc3)C(=O)/C(=C/c3ccc(F)cc3)C2)C(C)(C)N1O [HO-3867, 1-[(1-Oxyl-2,2,5,5-tetramethyl-2,5-dihydro-1H-pyrrol-3-yl)methyl]-(3E,5E)-3,5-Bis(4-fluorobenzylidene)piperidin-4-one]
[1]
  time to ATF-2 activation: ≤ 15 min
[2]
  expression of FAK: down-regulated
[3]
  MMP-2 activity: significantly down-regulated
[4]
  MMP-9 activity: significantly down-regulated
[5]
  activation of p38 mitogen-activated protein kinase: did not detect
[6]
  inhibitory effect on human aortic endothelial cells: did not have any significant inhibitory effect
[7]
  Akt level: without any change
  ERK1/2 and cyclin D1: down-regulation
  p53 and p21: induction
[8]
  MMP-9 expression: down-regulated
[9]; 5 mg/kg, 14 days, data not shown
  inhibition of neointimal formation: did not show any significant inhibition
[9]; daily for 14 days after balloon injury, versus injured/untreated
  intima/media ratio: significantly reduced
[9]; daily for 14 days after balloon injury, 10 mg/kg (FIG. 7A)
  intimal thickening: significantly inhibited
[10]; 10 μM HO-3867, compared with untreated or nontransfected cells
  survival of PTEN cDNA-transfected cells: even more significant reduction
[10]; 10 μM, 12 h, compared with PTEN cDNA- or HO-3867-alone-treated groups
  apoptotic population (sub-G1), PTEN cDNA overexpression plus HO-3867: significantly increased
[10]; 10 μM, 12 h, compared with untreated or nontransfected cells
  cleaved caspase-3 levels, PTEN cDNA+HO-3867-treated cells: substantial increase
[11]
  production of reactive oxygen species: did not detect
[12]; 0, 0.5, 1, 5, and 10 μM for 24 h, FBS-stimulated SMCs
  viable cell count: decreased in a concentration-dependent manner
[12]; 10% FBS-stimulated human SMCs, HO-3867 for 24 h, viable cell count
  EC50: 3.82 µM
[12]; at 1, 5, and 10 μM, 24 h, p<0.05 versus untreated cells
  cell-counts: Significantly reduced cell-counts
[13]; 5 mg/kg
  PTEN level in carotid artery tissue: restored PTEN to the control level
[13]; 10 mg/kg
  PTEN level in carotid artery tissue: increased the PTEN level significantly above control level
[14]; 10-mg/kg dose
  apoptosis in vivo (activation of cleaved caspase-3): induced apoptosis in vivo
[14]; [19]
  MMP-2, MMP-9, NF-κB p65, pERK1/2, pAkt, and cyclin D1 in tissue: down-regulation
  p53 and cleaved caspase-3 in tissue: up-regulation
[15]
  sub-G1 population (apoptosis): no effect
[15]; time-dependent
  G1 cell cycle arrest: induced G1 cell cycle arrest
[16]
  NF-κB p65: inhibited
[17]; [20]
  PTEN activation (pPTEN): induced
  PTEN expression: induced
[17]; RT-PCR, in 3 h
  PTEN mRNA expression: increase
[18]
  MMP-2 expression: down-regulated
